Laboratory results: ChEMBL document CHEMBL3396977, “Design, synthesis and docking study of novel tetracyclic oxindole derivatives as α-glucosidase inhibitors” (Bioorg Med Chem Lett, 2015)
The source made the active and inactive calls. The calls are words filed in the database; no cut-off is given here.

target: Alpha-glucosidase MAL12 (Saccharomyces cerevisiae S288c, UniProt P53341); assay: Inhibition of bakers yeast alpha-glucosidase using p-nitrophenyl-alpha-D-glucopyranoside as substrate after 30 mins by spectrophotometry
Sequence (P53341 whole entry): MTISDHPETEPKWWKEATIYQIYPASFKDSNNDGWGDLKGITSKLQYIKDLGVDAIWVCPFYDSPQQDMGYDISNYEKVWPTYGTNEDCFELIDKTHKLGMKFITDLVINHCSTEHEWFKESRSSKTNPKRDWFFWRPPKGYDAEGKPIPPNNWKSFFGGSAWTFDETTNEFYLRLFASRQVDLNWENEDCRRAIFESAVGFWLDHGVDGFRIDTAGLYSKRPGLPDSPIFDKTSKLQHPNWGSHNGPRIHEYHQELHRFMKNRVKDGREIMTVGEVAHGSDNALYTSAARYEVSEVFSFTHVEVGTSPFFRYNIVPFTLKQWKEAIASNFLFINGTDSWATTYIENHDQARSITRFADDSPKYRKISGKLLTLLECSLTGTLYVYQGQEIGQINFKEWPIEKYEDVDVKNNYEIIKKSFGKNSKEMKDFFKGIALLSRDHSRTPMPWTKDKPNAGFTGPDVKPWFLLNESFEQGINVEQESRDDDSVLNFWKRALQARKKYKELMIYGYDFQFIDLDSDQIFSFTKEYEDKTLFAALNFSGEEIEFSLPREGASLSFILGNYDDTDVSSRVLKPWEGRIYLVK

| IC50 [µM] | SMILES |
| --- | --- |
| 29 | CN1C(=O)C(=O)c2c1ccc1c2C(CC(=O)O)Oc2ccccc2-1 (configuration not stated) |
| 287 | COC(=O)CC1Nc2ccccc2-c2ccc3c(c21)C(=O)C(=O)N3C (configuration not stated) |
| 77.1 | COC(=O)CC1c2c(ccc3c2C(=O)C(=O)N3C)-c2ccccc2N1S(=O)(=O)c1ccccc1 (configuration not stated) |
| 45.3 | COC(=O)CC1Nc2ccccc2-c2ccc3c(c21)C(=O)C(=O)N3Cc1ccc(OC)cc1 (configuration not stated) |
| 187 | CN1C(=O)C(=O)c2c1ccc1c2C(CC(=O)O)Nc2ccccc2-1 (configuration not stated) |
| 39.3 | COC(=O)CC1Oc2ccccc2-c2cc(C)c3c(c21)C(=O)C(=O)N3Cc1ccccc1 (configuration not stated) |
| > 300 | COC(=O)CC1c2c(ccc3c2C(=O)C(=O)N3C)-c2ccccc2N1C(C)=O (configuration not stated) |
| 105 | COC(=O)CC1Oc2ccccc2-c2ccc3c(c21)C(=O)C(=O)N3C (configuration not stated) |
| 12.1 | COC(=O)CC1Oc2ccccc2-c2ccc3c(c21)C(=O)C(=O)N3Cc1ccccc1 (configuration not stated) |
| 75.9 | COC(=O)CC1c2c(ccc3c2C(=O)C(=O)N3C)-c2ccccc2N1C(=O)c1ccc(Cl)cc1 (configuration not stated) |
| 150 | COC(=O)CC1c2c(ccc3c2C(=O)C(=O)N3C)-c2ccccc2N1C(=O)c1ccccc1 (configuration not stated) |
| 32.3 | COC(=O)CC1Oc2ccccc2-c2ccc3c(c21)C(=O)C(=O)N3Cc1ccc(OC)cc1 (configuration not stated) |
| 16 | O=C(O)CC1Oc2ccccc2-c2ccc3c(c21)C(=O)C(=O)N3Cc1ccccc1 (configuration not stated) |
| 111 | COC(=O)CC1c2c(ccc3c2C(=O)C(=O)N3C)-c2ccccc2N1C(=O)c1ccc(OC)cc1 (configuration not stated) |
| 15.7 | COC(=O)CC1Oc2ccccc2-c2ccc3c(c21)C(=O)C(=O)N3Cc1ccc(C(F)(F)F)cc1 (configuration not stated) |
| 34.8 | COC(=O)CC1Oc2ccccc2-c2cc(C)c3c(c21)C(=O)C(=O)N3C (configuration not stated) |
| 4.8 | O=C(O)CC1Oc2ccccc2-c2ccc3c(c21)C(=O)C(=O)N3Cc1ccc(C(F)(F)F)cc1 (configuration not stated) |
| > 300 | COC(=O)CC1Nc2ccccc2-c2ccc3c(c21)C1(OCC(C)(C)CO1)C(=O)N3C (configuration not stated) |
| 117 | COC(=O)CC1Nc2ccccc2-c2cc(C)c3c(c21)C(=O)C(=O)N3C (configuration not stated) |
| 42.9 | COC(=O)CC1c2c(ccc3c2C(=O)C(=O)N3C)-c2ccccc2N1S(=O)(=O)c1ccc(F)cc1 (configuration not stated) |

target: Oligo-1,6-glucosidase IMA1 (Saccharomyces cerevisiae S288c) (UniProt P53051); assay: Competitive inhibition of bakers yeast alpha-glucosidase using p-nitrophenyl-alpha-D-glucopyranoside as substrate at 0.5 to 5 uM after 30 mins by Lineweaver-Burk plot analysis
Sequence (P53051 whole entry): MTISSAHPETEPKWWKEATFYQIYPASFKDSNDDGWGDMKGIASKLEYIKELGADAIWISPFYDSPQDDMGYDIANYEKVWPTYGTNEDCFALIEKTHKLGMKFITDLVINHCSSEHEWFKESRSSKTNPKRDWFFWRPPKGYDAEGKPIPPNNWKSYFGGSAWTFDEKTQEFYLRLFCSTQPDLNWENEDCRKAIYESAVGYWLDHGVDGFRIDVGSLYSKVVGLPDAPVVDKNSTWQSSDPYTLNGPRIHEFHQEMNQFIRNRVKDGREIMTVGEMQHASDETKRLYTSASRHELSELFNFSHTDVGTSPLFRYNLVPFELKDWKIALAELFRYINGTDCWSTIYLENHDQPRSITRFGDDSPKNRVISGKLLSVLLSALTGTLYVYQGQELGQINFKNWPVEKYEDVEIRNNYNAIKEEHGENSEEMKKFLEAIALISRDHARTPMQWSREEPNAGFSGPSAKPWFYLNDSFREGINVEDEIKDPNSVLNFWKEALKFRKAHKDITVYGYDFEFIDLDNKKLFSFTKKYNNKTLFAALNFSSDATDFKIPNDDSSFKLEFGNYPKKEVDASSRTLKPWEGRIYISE

| inhibition | SMILES |
| --- | --- |
| Active | O=C(O)CC1Oc2ccccc2-c2ccc3c(c21)C(=O)C(=O)N3Cc1ccc(C(F)(F)F)cc1 (configuration not stated) |

target: Oligo-1,6-glucosidase IMA1 (Saccharomyces cerevisiae S288c) (UniProt P53051); assay: Ratio of acarbose IC50 to compound IC50 for bakers yeast alpha-glucosidase using p-nitrophenyl-alpha-D-glucopyranoside as substrate after 30 mins by spectrophotometry

| Ratio IC50 | SMILES |
| --- | --- |
| 20 | O=C(O)CC1Oc2ccccc2-c2ccc3c(c21)C(=O)C(=O)N3Cc1ccc(C(F)(F)F)cc1 (configuration not stated) |
